Experimental data as given in PMC10342533, “Novel Tetrazole Derivatives Targeting Tubulin Endowed with Antiproliferative Activity against Glioblastoma Cells” (International Journal of Molecular Sciences, 2023).
In brackets after ≈: the same amount, converted by molar mass.

What was measured:
[1] = tested on: HeLa (cervix epithelioid carcinoma); assay: Cell growth inhibition, MTT assay, HeLa; assay type: cell-based; conditions: Homo sapiens
Method: (§1) The ability of the synthesized compounds to inhibit the cell proliferation of human cancer cell lines was assayed by measuring cell viability through the use of the MTT method 72 h after treatment. For this purpose, representative cell lines of the most frequent kinds of cancer were selected, including the following: HeLa (cervix epithelioid carcinoma), MCF7 (breast adenocarcinoma), U87 MG (glioblastoma), T98G (temozolomide resistant glioblastoma), HepG2 (hepatocellular carcinoma), HCT8 (colorectal carcinoma), and HT-29 (colon adenocarcinoma).
(§2) The cell lines were obtained from ATTC (Manassas, VA, USA). […] The cells were periodically tested for Mycoplasma infection by using a MycoAlert kit (Lonza, Norwest, Australia), and only Mycoplasma-free cells were used in the experiments.
(§3) Then, every compound was added (10 µL/well) to a final concentration of 10 µM. Untreated cells were used as negative controls. The antiproliferative activity of compounds was measured 72 h after drug exposure through the MTT assay. […] For this purpose, compounds were used at different concentrations, ranging from 10^−10 to 10^−2 M. Measurements were performed in triplicate, and each experiment was repeated three times. The IC50 values were determined using Origin software (version 9.6, OriginLab, Washington, DC, USA).

[2] = tested on: HCT8 (colorectal carcinoma); assay: Cell growth inhibition, MTT assay, HCT8; assay type: cell-based; conditions: Homo sapiens
Method: as §1, §2, §3

U87 MG (glioblastoma) = assay: Cell growth inhibition, MTT assay, U87 MG; assay type: cell-based; conditions: Homo sapiens, U-87 MG
Method: as §1, §2, §3

[3] = tested on: T98G (temozolomide resistant glioblastoma); assay: Cell growth inhibition, MTT assay, T98G; assay type: cell-based; conditions: Homo sapiens
Method: as §1, §2, §3

[4] = Aqueous solubility, shake-flask method, phosphate buffer pH 7.4; assay type: physicochemical; conditions: thermodynamic from solid, phosphate buffer pH 7.4, shake-flask, mean ± SD of three experiments
Method: The aqueous solubility of tetrazole derivatives was determined by the shaking flask methodology in phosphate buffer at pH 7.4, microfiltration, and quantification of the saturated solutions via UV spectroscopy. […] The introduction of polar groups on the 3-indole position was favorable since the most soluble compounds were the oximes 16–19 (38–53 µg/mL), followed by the carbaldehyde series 12–15 (33–45 µg/mL), and the carbonitrile derivatives (25–40 µg/mL), whereas the unsubstituted indoles 8–11 were the least soluble series (19–35 µg/mL).
The aqueous solubility of the compounds was determined using the saturation shake-flask method. First, calibration lines at the maximum wavelength of absorbance were determined for each compound. Then, 5 mg of each compound was suspended in 500 µL of pH 7.4 buffer, and the resulting mixture was shaken for 72 h at room temperature and filtrated over a […] filter to remove the insoluble fraction. The concentration of the compound in the supernatant (saturated solution) was determined by measuring UV absorbance at the maximum wavelength of absorbance and interpolation in the calibration line. A Helios Alfa Spectrophotometer was used for the UV measurements. The aqueous solubility values are given as the average of three independent experiments.

U87 MG cells = assay: Apoptotic cell death quantification, Annexin V-FITC/PI, U87 MG; assay type: cell-based, human; conditions: 72 h, 100 nM; for Necrotic cells: PI+ AnV−; for Live cells: PI− AnV−
Method: To characterize the cell death mechanism induced by the representative compounds 10, 12, or 14 at 100 nM on HeLa, MCF7, and U87 MG cells, dual-channel flow cytometry studies were carried out for cells in the absence (negative control) or presence of compounds 72 h after treatment. Fluorescein isothiocyanate-labeled Annexin V (FITC-AnV) and propidium iodide (PI) were used for double staining. Regarding their response to AnV and PI, cells can be identified as viable (PI−, AnV−), early apoptotic (PI−, AnV+), late apoptotic or secondary necrotic (PI+, AnV+), or necrotic (PI+, AnV−). The translocation of the phosphatidylserine from the inner to the outer cell membrane causes the response of apoptotic cells to AnV, whereas only cells suffering some kind of membrane disintegration (late apoptotic or necrotic cells) allow PI permeation.
Following the manufacturer’s guidelines, an Annexin V-FITC/PI apoptosis detection kit (Immunostep, Salamanca, Spain) was used to quantify HeLa, MCF7, or U87 MG cells. Cells were seeded in 12-well plates (5·10^4 cells/mL, 1 mL/well) and incubated in complete DMEM medium (see above) at 37 °C and 5% CO2 atmosphere for 24 h. Then, the cells were treated with selected compounds (10, 12, or 14) at 100 nM, and untreated cells were used as negative controls. Then, 72 h after incubation, the cells were harvested, centrifugated, resuspended in the Annexin V binding buffer, and incubated in darkness with Annexin V-FITC/PI for 15 min at room temperature. The samples were analyzed by using a BD Accuri™ C6 Plus Flow Cytometer (BD Biosciences), and acquired data were analyzed via BD Accuri™ C6 Software (version 1.0.264.21).

[5] = tested on: HEK-293 (embryonic kidney); assay: Cell growth inhibition, MTT assay, non-tumor HEK-293; assay type: cell-based; conditions: Homo sapiens, HEK293, 72 h, non-tumorigenic cell line
Method: The ability of the synthesized compounds to inhibit the cell proliferation of human cancer cell lines was assayed by measuring cell viability through the use of the MTT method 72 h after treatment. For this purpose, representative cell lines of the most frequent kinds of cancer were selected, including the following: HeLa (cervix epithelioid carcinoma), MCF7 (breast adenocarcinoma), U87 MG (glioblastoma), T98G (temozolomide resistant glioblastoma), HepG2 (hepatocellular carcinoma), HCT8 (colorectal carcinoma), and HT-29 (colon adenocarcinoma). […] The compounds were also tested against the non-tumor HEK-293 cells to study their selectivity toward cancer cells. […] The cell lines were obtained from ATTC (Manassas, VA, USA). […] The cells were periodically tested for Mycoplasma infection by using a MycoAlert kit (Lonza, Norwest, Australia), and only Mycoplasma-free cells were used in the experiments. […] Louis, MO, USA), which was dissolved in PBS at 5 mg/mL in accordance with the manufacturer's instructions. […] Untreated cells were used as negative controls. The antiproliferative activity of compounds was measured 72 h after drug exposure through the MTT assay. […] For this purpose, compounds were used at different concentrations, ranging from 10^-10 to 10^-2 M. Measurements were performed in triplicate, and each experiment was repeated three times. The IC50 values were determined using Origin software (version 9.6, OriginLab, Washington, DC, USA).

[6] = HCT-8, 72 h after drug exposure

IC50 ([1]; 72 h after drug exposure) [nM] | IC50 ([1]; mean ± SD, Table S1) [nM] | IC50 [2, 6] [nM] | IC50 ([2]; HCT-8, mean ± SD, Table S1) [nM] | IC50 (U87 MG (glioblastoma); 72 h after drug exposure) [nM] | IC50 (U87 MG (glioblastoma); mean ± SD, Table S1) [nM] | IC50 ([3]; 72 h, 72 h after drug exposure) [nM] | IC50 ([3]; mean ± SD, Table S1) [nM] | solubility at 72 h [4] [µg/mL] | SMILES | apoptotic response (U87 MG cells) | Necrotic cells (U87 MG cells) | Live cells (U87 MG cells) | IC50 [5] [nM]
36 | 36.4 ± 0.4 | 40 | 40.1 ± 0.3 | 17 | 17.1 ± 0.1 | 26 | 26.2 ± 0.2 | 33.1 ± 0.3 (≈ 88.7 µM) | Cn1cc(C=O)c2cc(-n3nnnc3-c3cc(Cl)nc(Cl)c3)ccc21 [Compound 12, 5-(5-(2,6-dichloropyridin-4-yl)-1H-tetrazol-1-yl)-1-methyl-1H-indole-3-carbaldehyde] | 70–74% | 15–19% | 9–15% | 3080
24 | 24.2 ± 0.1 | 29 | 29.4 ± 0.2 | 12 |  | 19 |  | 36.9 ± 0.3 (≈ 95.9 µM) | CSc1cc(-c2nnnn2-c2ccc3c(c2)c(C=O)cn3C)cc(Cl)n1 [Compound 14, 5-(5-(2-chloro-6-(methylsulfanyl)pyridin-4-yl)-1H-tetrazol-1-yl)-1-methyl-1H-indole-3-carbaldehyde] | 70–74% | 15–19% | 9–15% | 2270
39 | 39.3 ± 0.2 | 40 |  | 22 | 22.2 ± 0.1 | 25 |  | 26.1 ± 0.2 (≈ 73.1 µM) | CSc1cc(-c2nnnn2-c2ccc3c(ccn3C)c2)cc(Cl)n1 [Compound 10, 5-(5-(2-chloro-6-(methylsulfanyl)pyridin-4-yl)-1H-tetrazol-1-yl)-1-methyl-1H-indole] | 70–74% | 15–19% | 9–15% | 4390
